Reference: ChEMBL document CHEMBL1201862, “PubChem BioAssay data set” (2004)
The source made the active and inactive calls. Rule as the data show it, for most assays here: actives have a measured EC50 and inactives only a lower limit.

How the values were obtained:
[1] = test system: H4; experiment: Luminescence Cell-Based Dose Response HTS to Identify Activators of 5'UTR Stem-Loop Driven Prion Protein mRNA Translation in H4 Neuroglioblastoma Cells. [Related pubchem assays: 1829 (Project Summary), 1814 (Primary HTS)]; type: functional; conditions: Homo sapiens
[2] = Luminescence Cell-Based Dose Response HTS to Identify Activators of Luciferase Translation or Activity in H4 […] Cells. [Related pubchem assays: 1829 (Project Summary), 1814 (Primary HTS)]; type: functional
[3] = Luminescence Cell-Based Dose Confirmation HTS to Identify Activators of 5'UTR Stem-Loop Driven Alpha-Synuclein mRNA Translation in H4 Neuroglioblastoma Cells. [Related pubchem assays: 1829 (Project Summary), 1814 (Primary HTS)]; type: functional
[4] = Luminescence Cell-Based Dose Confirmation HTS to Identify Inhibitors of Platelet Dense Granule Release. [Related pubchem assays: 1663 (Primary HTS), 1678 (Summary of Project)]; type: functional
[5] = molecular target: Luciferin 4-monooxygenase (Photinus pyralis, UniProt P08659); experiment: firefly luciferase enzyme inhibitors, dose response, biochemical, luminescence (AID 1891)
Chain of Luciferin 4-monooxygenase (P08659 whole entry): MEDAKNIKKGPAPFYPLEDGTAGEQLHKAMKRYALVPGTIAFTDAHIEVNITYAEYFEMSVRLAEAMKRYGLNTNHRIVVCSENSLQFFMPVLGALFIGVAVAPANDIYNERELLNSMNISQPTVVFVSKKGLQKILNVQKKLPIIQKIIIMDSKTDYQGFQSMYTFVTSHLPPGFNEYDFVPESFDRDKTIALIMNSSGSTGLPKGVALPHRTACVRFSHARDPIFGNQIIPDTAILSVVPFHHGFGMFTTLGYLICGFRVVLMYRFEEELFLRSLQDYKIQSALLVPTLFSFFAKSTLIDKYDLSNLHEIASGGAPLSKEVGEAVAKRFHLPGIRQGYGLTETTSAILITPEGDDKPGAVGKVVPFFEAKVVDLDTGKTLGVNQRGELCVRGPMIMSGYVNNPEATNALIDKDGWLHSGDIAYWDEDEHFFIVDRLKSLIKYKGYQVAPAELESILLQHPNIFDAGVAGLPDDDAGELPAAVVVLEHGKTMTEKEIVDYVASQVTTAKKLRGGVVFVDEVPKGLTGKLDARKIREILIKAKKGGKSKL

[6] = molecular target: T1, Heat shock factor protein 1 (Mus musculus, UniProt P38532); experiment: HSF1 potentiators in luciferase reporter cells, confirmation, cell-based, NIH3T3, luminescence, dose retest (AID 435004); type: functional;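 also: stress induced by proteasome inhibitor MG132 added 30 min after compound; luciferase reporter driven by HSF1 response element in NIH3T3 cells; actives raise luminescence as potentiators of the MG132 stress response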
T1 sequence (P38532 whole entry): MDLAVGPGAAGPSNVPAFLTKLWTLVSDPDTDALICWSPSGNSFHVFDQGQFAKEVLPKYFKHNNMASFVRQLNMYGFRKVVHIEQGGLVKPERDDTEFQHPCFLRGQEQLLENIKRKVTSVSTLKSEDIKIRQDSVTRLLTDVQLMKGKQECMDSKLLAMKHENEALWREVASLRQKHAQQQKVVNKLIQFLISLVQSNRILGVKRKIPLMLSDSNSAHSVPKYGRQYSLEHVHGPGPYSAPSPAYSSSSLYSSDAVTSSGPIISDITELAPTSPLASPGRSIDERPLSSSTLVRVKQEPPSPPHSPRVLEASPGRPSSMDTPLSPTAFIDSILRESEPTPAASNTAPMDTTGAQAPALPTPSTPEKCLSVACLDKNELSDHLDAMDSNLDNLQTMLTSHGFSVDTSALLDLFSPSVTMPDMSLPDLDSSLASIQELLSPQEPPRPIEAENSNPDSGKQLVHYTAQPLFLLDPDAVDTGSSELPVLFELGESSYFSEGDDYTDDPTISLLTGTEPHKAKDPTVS

[7] = molecular target: Cytochrome P450 2D6 (Homo sapiens, UniProt P10635);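 also: CYP2D6 member of a cytochrome P450 panel assay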
Chain of Cytochrome P450 2D6 (P10635 whole entry): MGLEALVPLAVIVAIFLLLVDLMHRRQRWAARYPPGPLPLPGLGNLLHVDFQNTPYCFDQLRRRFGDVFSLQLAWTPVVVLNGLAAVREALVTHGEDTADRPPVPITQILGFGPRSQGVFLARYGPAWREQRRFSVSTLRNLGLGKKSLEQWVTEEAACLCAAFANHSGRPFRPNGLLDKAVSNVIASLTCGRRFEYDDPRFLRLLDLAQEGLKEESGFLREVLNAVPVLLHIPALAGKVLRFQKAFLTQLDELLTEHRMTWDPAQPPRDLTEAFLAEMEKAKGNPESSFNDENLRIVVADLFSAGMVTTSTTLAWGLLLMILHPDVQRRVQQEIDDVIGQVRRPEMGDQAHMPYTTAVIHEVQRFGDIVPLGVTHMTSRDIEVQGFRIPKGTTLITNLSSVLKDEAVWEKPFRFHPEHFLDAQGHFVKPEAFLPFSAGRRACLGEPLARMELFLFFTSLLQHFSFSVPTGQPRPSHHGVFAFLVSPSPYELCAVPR

[8] = molecular target: Cytochrome P450 2C9 (Homo sapiens, UniProt P11712)
Chain of Cytochrome P450 2C9 (P11712 whole entry): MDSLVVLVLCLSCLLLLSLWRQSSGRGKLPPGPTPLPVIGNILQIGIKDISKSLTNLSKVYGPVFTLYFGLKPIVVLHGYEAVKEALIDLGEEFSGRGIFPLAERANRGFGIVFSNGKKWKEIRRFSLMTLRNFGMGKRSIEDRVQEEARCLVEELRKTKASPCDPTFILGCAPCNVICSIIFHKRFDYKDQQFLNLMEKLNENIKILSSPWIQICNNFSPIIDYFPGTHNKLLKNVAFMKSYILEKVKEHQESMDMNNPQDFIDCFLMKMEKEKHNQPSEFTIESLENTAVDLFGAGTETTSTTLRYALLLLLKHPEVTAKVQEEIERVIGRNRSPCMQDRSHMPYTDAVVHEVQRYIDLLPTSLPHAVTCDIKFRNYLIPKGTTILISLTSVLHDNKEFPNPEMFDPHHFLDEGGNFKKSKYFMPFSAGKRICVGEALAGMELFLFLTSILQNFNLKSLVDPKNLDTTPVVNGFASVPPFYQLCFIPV

[9] = molecular target: Cytochrome P450 3A4 (Homo sapiens, UniProt P08684);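 also: CYP3A4 tested as one member of a cytochrome P450 panel screen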
Chain of Cytochrome P450 3A4 (P08684 whole entry): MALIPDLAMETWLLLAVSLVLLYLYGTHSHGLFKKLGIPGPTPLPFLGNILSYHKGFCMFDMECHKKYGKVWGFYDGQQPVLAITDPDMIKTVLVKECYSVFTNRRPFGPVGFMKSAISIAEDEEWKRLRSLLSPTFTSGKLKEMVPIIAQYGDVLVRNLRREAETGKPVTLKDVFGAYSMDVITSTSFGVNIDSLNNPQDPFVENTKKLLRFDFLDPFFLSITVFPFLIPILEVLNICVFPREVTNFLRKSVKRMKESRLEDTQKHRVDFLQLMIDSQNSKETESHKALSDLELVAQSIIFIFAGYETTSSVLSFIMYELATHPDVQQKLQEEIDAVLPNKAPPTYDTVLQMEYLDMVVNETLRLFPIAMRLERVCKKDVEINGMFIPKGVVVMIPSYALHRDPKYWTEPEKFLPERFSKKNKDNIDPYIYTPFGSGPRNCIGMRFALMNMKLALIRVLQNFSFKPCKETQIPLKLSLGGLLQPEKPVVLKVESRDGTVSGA

[10] = molecular target: T2, Corticotropin-releasing factor receptor 2/Corticotropin-releasing factor-binding protein (Homo sapiens, UniProt P24387+Q13324); experiment: Dose Response confirmation of uHTS hits for small molecule antagonists of the CRF-binding protein and CRF-R2 receptor complex.; type: functional; conditions: read-out: IC50_Mean
T2 sequence (Q13324 whole entry): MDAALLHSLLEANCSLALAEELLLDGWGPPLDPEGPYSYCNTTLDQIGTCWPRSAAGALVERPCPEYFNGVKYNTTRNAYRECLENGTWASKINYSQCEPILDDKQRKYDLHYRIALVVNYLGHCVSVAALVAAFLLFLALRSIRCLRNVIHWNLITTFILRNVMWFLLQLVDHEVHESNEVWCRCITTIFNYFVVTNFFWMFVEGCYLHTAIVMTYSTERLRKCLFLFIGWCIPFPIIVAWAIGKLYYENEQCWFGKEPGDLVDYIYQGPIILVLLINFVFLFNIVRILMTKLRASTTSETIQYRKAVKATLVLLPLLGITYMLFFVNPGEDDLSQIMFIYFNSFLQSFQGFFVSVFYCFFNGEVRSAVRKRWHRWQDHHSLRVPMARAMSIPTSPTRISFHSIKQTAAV
T2 sequence (P24387 whole entry): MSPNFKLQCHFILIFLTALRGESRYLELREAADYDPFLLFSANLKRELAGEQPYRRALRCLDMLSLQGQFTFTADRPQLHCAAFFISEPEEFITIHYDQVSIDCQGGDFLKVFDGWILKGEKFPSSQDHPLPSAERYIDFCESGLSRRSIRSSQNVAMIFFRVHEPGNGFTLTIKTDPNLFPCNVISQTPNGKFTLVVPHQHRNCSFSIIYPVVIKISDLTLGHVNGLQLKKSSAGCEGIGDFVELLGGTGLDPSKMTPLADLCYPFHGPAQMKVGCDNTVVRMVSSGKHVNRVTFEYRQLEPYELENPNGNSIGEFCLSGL

[11] = molecular target: T2, Corticotropin-releasing factor receptor 2/Corticotropin-releasing factor-binding protein; experiment: activators of CRF receptor 2 with binding protein – uHTS hits, confirmation (AID 602473); type: functional; conditions: read-out: EC50_Mean
[12] = molecular target: T3, RNA-binding protein pos-1 (Caenorhabditis elegans, UniProt G5EF15); experiment: inhibitors of POS-1/mex-3 RNA binding, dose response, biochemical, fluorescence polarization (AID 1964);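 also: purified POS-1 fused to maltose binding protein made in E. coli; potency of compounds blocking POS-1 binding to fluorescent RNA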
T3 sequence (G5EF15 whole entry): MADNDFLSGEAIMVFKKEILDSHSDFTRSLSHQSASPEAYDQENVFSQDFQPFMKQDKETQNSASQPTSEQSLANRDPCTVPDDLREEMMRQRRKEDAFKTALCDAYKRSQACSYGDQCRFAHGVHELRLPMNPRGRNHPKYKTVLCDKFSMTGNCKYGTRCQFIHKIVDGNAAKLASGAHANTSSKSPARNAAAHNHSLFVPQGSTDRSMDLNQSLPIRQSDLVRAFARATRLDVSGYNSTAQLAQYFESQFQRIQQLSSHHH

For `CCOc1ccc(C(=O)Nc2nnc(S(=O)(=O)N(C)Cc3ccco3)s2)cc1`, the EC50 [1] was 6.04 µM (active), the EC50 [2] was 0.162 µM (inconclusive) and the EC50 [3] was 15.1 µM (active).
For `CC(C)(C)c1ccc(C(=O)NCC(=O)OCC(=O)Nc2nc(-c3ccc(F)cc3)cs2)cc1`, the EC50 [1] was 13.5 µM (active), the EC50 [2] was > 120 µM (not active) and the EC50 [3] was 19.9 µM (active).
With `N#Cc1ccc(/C=N/NC(=O)CCc2ccc(S(=O)(=O)N3CCOCC3)cc2)cc1` the EC50 [4] was > 112 µM (not active) and the EC50 [5] was > 112 µM (not active).
With `COc1cccc(OCc2ccc(Cl)cc2)c1C#N` the EC50 [6] was > 260 µM (inactive).
For `CC(c1nccs1)N(C)C(=O)c1cn(Cc2cccc3ccccc23)nn1` (configuration not stated), the EC50 [1] was 47.3 µM (active), the EC50 [2] was 18 µM (active) and the EC50 [3] was 13.2 µM (active).
For `COc1ccc([N+]2=C3CCc4ccccc4N3CC2(C)O)cc1` (configuration not stated), the EC50 [1] was > 120 µM (not active), the EC50 [2] was > 120 µM (not active) and the EC50 [3] was > 120 µM (not active).
With `O=C(CCNC(=O)C1CCN(S(=O)(=O)c2ccccc2)CC1)NCc1ccc(Cl)c(Cl)c1` the EC50 [4] was > 112 µM (not active) and the EC50 [5] was > 112 µM (not active).
For `CC1=CC(C)(C)N=C(S)N1c1cccc(C)c1`, the AC50 [7] was 6.31 µM (inconclusive), the AC50 [8] was 3.55 µM (inconclusive) and the AC50 [9] was 25.1 µM (inconclusive). For the same compound, the EC50 [6] was > 260 µM (inactive).
For `COc1ccc(OC)c(NC(=O)c2ccccc2NS(=O)(=O)c2cccc3cccnc23)c1`, the IC50 [10] was < 0.368 µM (active) and the EC50 [11] was > 53 µM (inactive).
With `C=CCn1c(SCC(=O)Nc2sc3c(c2C#N)CCC3)nnc1C1COc2ccccc2O1` (configuration not stated) the EC50 [4] was > 112 µM (not active) and the EC50 [5] was 39.7 µM (active).
For `Cc1ccc(Cn2c(SCC(=O)NCC3CCCO3)nc3ccsc3c2=O)cc1` (configuration not stated), the IC50 [10] was > 47.1 µM (inactive) and the EC50 [11] was > 53 µM (inactive).
In the case of `Cc1cc(C)n(Cc2cccc(F)c2)c(=O)c1C#N`, the EC50 [4] is reported as > 112 µM (not active) and the EC50 [5] is reported as > 112 µM (not active).
With `CCC1CCCCN1CCCNC(=O)c1cn(C)c2ccc(S(=O)(=O)N(C)C3CCCCC3)cc2c1=O` (configuration not stated) the IC50 [10] was > 47.1 µM (inactive) and the EC50 [11] was > 53 µM (inactive).
In the case of `Cc1nc2sccn2c(=O)c1S(=O)(=O)NC(C)c1ccccc1` (configuration not stated), the EC50 [4] is reported as > 112 µM (not active) and the EC50 [5] is reported as > 112 µM (not active).
For `Cc1ccsc1/C=N\NC(=O)CCc1c(C)n[nH]c1C`, the IC50 [10] was > 47.1 µM (inactive) and the EC50 [11] was > 53 µM (inactive).
In the case of `Cn1c(=O)oc2cc(S(=O)(=O)NC3CCN(Cc4ccccc4)CC3)ccc21`, the EC50 [4] is reported as > 112 µM (not active) and the EC50 [5] is reported as > 112 µM (not active).
With `CSC1=NC(C)(C)CC2(C)Nc3ccccc3N12` (configuration not stated) the EC50 [1] was > 120 µM (not active), the EC50 [2] was > 120 µM (not active) and the EC50 [3] was > 120 µM (not active).
For `C=CCn1c(=O)c2ccccc2n2c(SCC(=O)Nc3sc(C)c(CC)c3C(=O)OCC)nnc12`, the EC50 [6] was > 260 µM (inactive).
For `CS(=O)(=O)Nc1cccc(C2=NN(C(=O)CCCC(=O)O)C(c3cccs3)C2)c1` (configuration not stated), the EC50 [6] was > 260 µM (inactive).
With `O=C(O)C1C2C=CC(C2)C1C(=O)NCc1ccccn1` (configuration not stated) the EC50 [4] was > 112 µM (not active) and the EC50 [5] was > 112 µM (not active).
In the case of `NC(=O)COC(=O)c1cccc(S(=O)(=O)N2CCCCC2)c1`, the IC50 [10] is reported as > 47.1 µM (inactive) and the EC50 [11] is reported as > 53 µM (inactive).
For `O=C(OCc1csc(-c2ccccc2)n1)c1cccs1`, the EC50 [6] was > 260 µM (inactive).
In the case of `COc1ccc(-c2nn(-c3ccccc3)cc2/C=C(\C#N)S(=O)(=O)c2ccccc2)cc1OC`, the IC50 [10] is reported as > 47.1 µM (inactive) and the EC50 [11] is reported as > 53 µM (inactive).
With `Cc1cc(C)cc(N2C(=O)NC(=O)/C(=C\c3cccn3-c3ccc(Cl)cc3)C2=O)c1` the EC50 [12] was 84.5 µM (active).
In the case of `CC(C)N1CC(C(=O)Nc2ccc(Br)c(Cl)c2)CC1=O` (configuration not stated), the IC50 [10] is reported as > 47.1 µM (inactive) and the EC50 [11] is reported as > 53 µM (inactive).
For `CC(C)(C)n1ncc2c(=O)n(CC(=O)c3ccc(Cl)cc3)cnc21`, the EC50 [2] was 0.115 µM (active) and the EC50 [3] was 0.168 µM (active).
In the case of `CN(C)c1nc(NCc2ccccc2)nc(SCC(=O)Nc2ccccc2Cl)n1`, the IC50 [10] is reported as > 47.1 µM (inactive) and the EC50 [11] is reported as > 53 µM (inactive).
For `O=C(Nc1ccc(C(=O)N2CCCC2)cc1)c1ccccc1F`, the IC50 [10] was > 47.1 µM (inactive) and the EC50 [11] was > 53 µM (inactive).
For `COCCN1CCN(C(=O)c2cc(COc3cc(C)ccc3C)on2)CC1`, the IC50 [10] was > 47.1 µM (inactive) and the EC50 [11] was > 53 µM (inactive).
In the case of `O=C(O)c1ccc(/C=N/N2CCN(c3ccccc3)CC2)cc1`, the EC50 [1] is reported as > 120 µM (not active), the EC50 [2] is reported as 19.6 µM (active) and the EC50 [3] is reported as 0.687 µM (active).
In the case of `O=C(CSc1nc(-c2ccccc2)cs1)NCCN1C(=O)CSC1=O`, the EC50 [1] is reported as 17.9 µM (active), the EC50 [2] is reported as 31.1 µM (active) and the EC50 [3] is reported as 6.7 µM (active).
In the case of `O=C1/C(=C\c2ccc(Br)o2)Cc2ccccc21`, the EC50 [6] is reported as 27.6 µM (active).
With `COc1ccc(-c2[nH]ncc2/C=N/NC(=O)c2ccc(Br)cc2)c(OC)c1` the EC50 [4] was 16.1 µM (active) and the EC50 [5] was > 112 µM (not active).
For `COc1cccc2oc3cc(C#Cc4ccccn4)ccc3c(=O)c12`, the EC50 [4] was > 112 µM (not active) and the EC50 [5] was 23.1 µM (active).
In the case of `COc1ccc(C2CC(c3ccccc3OC(=O)/C=C/c3ccccc3)=NN2C(C)=O)cc1` (configuration not stated), the EC50 [1] is reported as 36.4 µM (active), the EC50 [2] is reported as 18.5 µM (active) and the EC50 [3] is reported as 14 µM (active).
With `CCOC(=O)COc1cccc2c(=O)n(CC(=O)NCCc3ccccc3)ccc12` the EC50 [1] was 19.5 µM (active), the EC50 [2] was > 120 µM (not active) and the EC50 [3] was > 120 µM (not active).
